From patent US20260125375A1 (Pfizer Inc., priority 2022, published 2026)

Legend:
CBL-B (residues 36-427) = molecular target: T1, CBL-B (residues 36-427) (Homo sapiens, UniProt Q13191); experiment: Ligand Displacement Assay (LDA), HTRF competitive binding against BODIPY-labeled fluorescent tracer, CBL-B; settings: geometric mean of the number of tests, read-out: CBL-B Ki (nM) GMean
T1 construct: Purified CBL-B (residues 36-427) and C-CBL (residues 46-435) proteins from baculovirus-infected insect cells; made in house; host or cells: baculovirus-infected insect cells
Text: (§1) Ligand Displacement Assay (LDA)
(§2) The purpose of the homogeneous time-resolved fluorescence energy transfer (HTRF) ligand displacement assay is to determine whether the compounds of the disclosure are competitive with a BODIPY-labeled compound; “fluorescent tracer” aka [6-cyclopropyl-5-(17-{5-[(3,5-dimethyl-2H-pyrrol-2-ylidene-KN)methyl]-1H-pyrrol-2-yl-κN}-15-oxo-5,8,11-trioxa-2,14-diazaheptadecan-1-yl)-N-(3-{3-[(4-methyl-4H-1,2,4-triazol-3-yl)methyl]oxetan-3-yl}phenyl)pyridine-2-carboxamidato](difluorido)boron and to assess CBL-B binding selectivity over C-CBL. The synthesis of this fluorescent tracer compound is described below.
(§3) Purified CBL-B (residues 36-427) and C-CBL (residues 46-435) proteins from baculovirus-infected insect cells were biotin labeled on their amino-terminal AviTag™ epitopes by the E. coli biotin ligase BirA to bind terbium-labeled streptavidin (SA-Tb). After optimizing the assays and determining KD values for the fluorescent tracer to CBL-B and C-CBL, compounds were tested using three-fold serial dilutions in duplicate from a top concentration of […] with a final DMSO concentration of 2%. […] The Ki (nM) values reported are the geometric means (GMean) of the number of tests conducted.

C-CBL (46-435) = molecular target: T2, C-CBL (46-435) (Homo sapiens, UniProt P22681); experiment: Surface Plasmon Resonance (SPR) assay, binding affinity and kinetics, C-CBL; settings: SPR at 10° C., biotinylated C-CBL (46-435) on streptavidin chip; geometric mean; read-out: C-CBL SPR Kd (nM) GMean
T2 construct: N-terminal biotinylated WT CBL-B (36-427) and C-CBL (46-435) were captured on a streptavidin (SA) coated sensor chip
T2 sequence (P22681 46-435): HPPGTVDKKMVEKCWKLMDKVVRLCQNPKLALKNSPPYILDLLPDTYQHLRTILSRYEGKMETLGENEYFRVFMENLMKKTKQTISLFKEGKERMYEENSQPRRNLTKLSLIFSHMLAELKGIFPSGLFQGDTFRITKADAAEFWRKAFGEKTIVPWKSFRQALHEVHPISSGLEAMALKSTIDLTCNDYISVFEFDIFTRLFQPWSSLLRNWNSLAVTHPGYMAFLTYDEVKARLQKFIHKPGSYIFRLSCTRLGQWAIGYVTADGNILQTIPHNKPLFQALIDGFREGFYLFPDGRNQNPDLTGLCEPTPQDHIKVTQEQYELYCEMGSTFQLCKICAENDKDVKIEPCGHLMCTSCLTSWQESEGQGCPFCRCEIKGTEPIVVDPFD
Description: (§4) Surface Plasmon Resonance (SPR) Assay
(§5) The purpose of the SPR assay is to evaluate the binding affinity and kinetics of the compound of disclosure binding to CBL-B and C-CBL.
(§6) The binding affinity and kinetics of compound binding to CBL-B and C-CBL were measured by Surface Plasmon Resonance (SPR) using either Biacore S200, 8K or 8K+ (Cytiva, Marlborough, MA) instruments. N-terminal biotinylated WT CBL-B (36-427) and C-CBL (46-435) were captured on a streptavidin (SA) coated sensor chip to achieve approximately 5000 to 6000 RUs of surface density. Un-functionalized SA surfaces with no immobilized protein served as reference for binding kinetic analysis. All the samples were prepared in buffer consisting of 10 mM HEPES, 150 mM NaCl, 0.05% Tween-20, 5% glycerol, […], 2% DMSO, pH 7.2. The same buffer was used as the running buffer during the experiments. Compound binding kinetics were measured in either multi-cycle or single-cycle kinetic format.
(§7) Multi-cycle kinetic analysis (MCK): A two-fold, 10-point serial dilution of test compounds was set-up in a 96-well microplate (Greiner; Cat #650101) with a top concentration of either 10 μM or 100 μM. Binding kinetics was measured at 10° C. by injecting serial dilution of compounds onto both reference and CBL immobilized channels at a flow rate of 100 μL/min and association time of 90 seconds. Compound dissociation was monitored for >400 seconds during each cycle. No additional regeneration was used. DMSO calibration curve was obtained before and after compound analysis by injecting 0-4% of DMSO in assay buffer. A suitable compound with known affinity and kinetics was tested once in every experiment as a positive control to assess activity of the captured proteins on the surface.
(§8) Single-cycle kinetic analysis (SCK): A 3-fold, 6-point serial dilution of compounds was set-up in a deep 96-well microplate (Greiner Bio; Cat #780201) with the highest concentration of 1 μM (concentration range: […]). Binding kinetics was measured at 10° C. by injecting serial dilutions of compounds in increasing order onto reference as well as CBL immobilized channels at a flow rate of 100 μL/min and association time of 120 seconds. Compound dissociation was monitored for >5400 seconds. Two buffer blanks were also run in a single-cycle kinetics format before the compound run for double referencing. No additional regeneration was used. DMSO calibration curve was obtained before and after compound analysis by injecting 0-4% of DMSO in the assay buffer. A suitable compound with known affinity and kinetics was tested once in every experiment as a positive control to assess activity of the captured proteins on the surface.

WT CBL-B (36-427) = molecular target: T3, WT CBL-B (36-427) (Homo sapiens, UniProt Q13191); experiment: Surface Plasmon Resonance (SPR) assay, binding affinity and kinetics, CBL-B; settings: SPR at 10° C., biotinylated WT CBL-B (36-427) on streptavidin chip; geometric mean; read-out: CBL-B SPR Kd (nM) GMean
T3 construct: N-terminal biotinylated WT CBL-B (36-427) and C-CBL (46-435) were captured on a streptavidin (SA) coated sensor chip
Description: as §4, §5, §6, §7, §8

C-CBL (residues 46-435) = molecular target: T4, C-CBL (residues 46-435) (Homo sapiens, UniProt P22681); experiment: Ligand Displacement Assay (LDA), HTRF competitive binding against BODIPY-labeled fluorescent tracer, C-CBL; settings: geometric mean of the number of tests, read-out: C-CBL Ki (nM) GMean
T4 construct: Purified CBL-B (residues 36-427) and C-CBL (residues 46-435) proteins from baculovirus-infected insect cells; made in house; host or cells: baculovirus-infected insect cells
T4 sequence (P22681 46-435): T2 sequence (P22681 46-435)
Text: as §1, §2, §3

| SMILES | Ki (CBL-B (residues 36-427)) | Kd (C-CBL (46-435)) | Kd (WT CBL-B (36-427)) | Ki (C-CBL (residues 46-435)) |
| --- | --- | --- | --- | --- |
| C[C@H](c1nc(C(F)(F)F)cc2c(-c3cccc(C4(Cc5nncn5C)COC4)c3)n[nH]c12)N1CCC1 (single isomer, unassigned) [Example D42] | 35.3 nM | 59.8 nM | 9.4 nM | 163 nM |
| C[C@@H](c1nc(C(F)(F)F)cc2c(-c3cccc(C4(Cc5nncn5C)COC4)c3)n[nH]c12)N1CC(F)C1 (single isomer, unassigned) [Example D43] | 14.5 nM | 80.2 nM | 6.7 nM | 75.1 nM |
| C[C@H](c1nc(C(F)(F)F)cc2c(-c3cccc(C4(Cc5nncn5C)COC4)c3)n[nH]c12)N1CC(F)C1 (single isomer, unassigned) [Example D44] | 15.6 nM | 74 nM | 5.9 nM | 47.4 nM |
| C[C@@H](c1nc(C(F)(F)F)cc2c(-c3cccc(C4(Cc5nncn5C)COC4)c3)n[nH]c12)N1CC(F)(F)C1 (single isomer, unassigned) [Example D45] | 19.9 nM | 83.9 nM | 5.2 nM | 80.3 nM |
| C[C@H](c1nc(C(F)(F)F)cc2c(-c3cccc(C4(Cc5nncn5C)COC4)c3)n[nH]c12)N1CC(F)(F)C1 (single isomer, unassigned) [Example D46] | 46.5 nM | 184 nM | 12.2 nM | 250 nM |
| C[C@@H](c1nc(C(F)(F)F)cc2c(-c3cccc(C4(Cc5nncn5C)COC4)c3)n[nH]c12)N1CCCC1 (single isomer, unassigned) [Example D47] | 36.9 nM | 193 nM | 16.3 nM | 162 nM |
| C[C@H](c1nc(C(F)(F)F)cc2c(-c3cccc(C4(Cc5nncn5C)COC4)c3)n[nH]c12)N1CCCC1 (single isomer, unassigned) [Example D48] | 16.1 nM | 74.6 nM | 9.3 nM | 44.9 nM |
| C[C@@H]1CN([C@@H](C)c2nc(C(F)(F)F)cc3c(-c4cccc(C5(Cc6nncn6C)COC5)c4)n[nH]c23)CCO1 (single isomer, unassigned) [Example D49] | 17.8 nM | 82 nM | 5.9 nM | 104 nM |
| C[C@@H]1CN([C@H](C)c2nc(C(F)(F)F)cc3c(-c4cccc(C5(Cc6nncn6C)COC5)c4)n[nH]c23)CCO1 (single isomer, unassigned) [Example D50] | 9 nM | 30.1 nM | 2.6 nM | 30.7 nM |
| C[C@@H](c1nc(C(F)(F)F)cc2c(-c3cccc(C4(Cc5nncn5C)COC4)c3)n[nH]c12)N1CCNC(=O)C1 (single isomer, unassigned) [Example D51] | 5.7 nM | 15 nM | 2.7 nM | 19.6 nM |
| C[C@H](c1nc(C(F)(F)F)cc2c(-c3cccc(C4(Cc5nncn5C)COC4)c3)n[nH]c12)N1CCNC(=O)C1 (single isomer, unassigned) [Example D52] | 31.9 nM | 79.1 nM | 10.1 nM | 118 nM |
